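Grown in 96-well plates, cells were treated for 48 hours with each compound at five concentrations. Insufficient inhibition: endpoint recorded as highest concentration tested. TGI marks complete inhibition of growth.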

Holding throughout (assay): NCI tumour cell line growth inhibition, 48 h
Assay [1] concerns DLD-1 colon.
Assay [2] deals with DMS 273 small cell lung.
Assay [3] has as its system KM20L2 colon.
For assay [4], the system named is M19-MEL melanoma.
Assay [5] relates to SNB-78 CNS.
For assay [6], the system named is XF 498 CNS.
The test system of assay [7] is DMS 114 small cell lung.
Assay [8] concerns HOP-18 NSCLC.
In assay [9] the test system is P388 leukemia.
Assay [10] concerns P388/ADR leukemia.
For assay [11], the system named is SN12K1 renal.

Take `CC(=O)NC1=C(NCC(C)(C)C)C(=O)c2ccccc2C1=O`: the TGI is greater than 100 µM in assay [1]; greater than 100 µM in assay [2]; greater than 100 µM in assay [3]; 39.8 µM in [4]; greater than 100 µM in [5]; 65.5 µM in [6].

On to `CC1(C)CCc2ccc(OCCC(=O)O)cc2O1`, for which the TGI in assay [1], in assay [7], in [2], in [4] and in [5] was greater than 100 µM each time.

For the molecule `O=c1cc(-c2cccc(O)c2)[nH]c2cc3c(cc12)OCO3`, the TGI is greater than 100 µM in [1]; 5.68 µM in assay [7]; 4.23 µM in assay [2]; greater than 100 µM in assay [8]; 95.9 µM in assay [4]; 54.2 µM in assay [5]. Besides, the TGI in assay [6] is greater than 100 µM.

For `O=C(CSC(=S)N1CCCCC1)Nc1nc2c(s1)CCCC2`, the TGI in [1], in [7], in [2], in assay [3], in assay [4] and in [5] was greater than 100 µM in each case. In [6], this molecule showed a TGI of 71.3 µM.

`C[n+]1c2ccccc2c(NCC(=O)O)c2ccccc21`: the TGI in [1], in assay [7], in assay [2], in [8], in assay [3] and in [4] was greater than 100 µM throughout. This molecule also displayed a TGI in assay [5] greater than 100 µM.

Take `Cc1c2n(c(=O)[nH]c1=O)C1OC(CO)C(O2)C1N=[N+]=[N-]` (stereo not drawn): the TGI in [1], in assay [7], in [2], in assay [3], in assay [4] and in [5] was greater than 100 µM throughout.

In the case of `COc1cc2c(c(OC)c1O)-c1ccc(SC)c(=O)cc1C(NC(C)=O)CC2` (stereo not drawn), the TGI in [1] is greater than 100 µM; in assay [7] it was less than 0.0143 µM; in assay [2] it was greater than 100 µM; in [8] it was greater than 100 µM; in assay [3] it was 0.0246 µM; in assay [4], greater than 100 µM. For the same molecule, in assay [5], the TGI is greater than 100 µM.

With `Cc1cc(=O)[nH]c(NNC(C#N)c2cccc(O)c2)n1` (stereo not drawn), the TGI in assay [1], in assay [7], in [2], in assay [8], in assay [3] and in assay [4] was greater than 100 µM in each case. In addition, in assay [5], the TGI is greater than 100 µM.

`N/C(=N\N=C/c1ccc(O)c(O)c1O)NO`: the TGI in assay [1] is 51.2 µM; in assay [7], 54.8 µM; in assay [2] it was 18.5 µM; in [8], greater than 100 µM; in assay [3] it was 82.5 µM; in assay [4], 48.1 µM. The TGI in assay [9] is 29.4 µM; in assay [10], 41.6 µM; in assay [11] it was 34.7 µM; in assay [5], greater than 79.4 µM; in [6] it was greater than 100 µM.

The values are drawn from PubChem BioAssay (NCI).
